The source of these data is patent US6274587A, “Tricyclic dihydropyrimidine potassium channel openers” (Abbott Laboratories, priority 1999, dated 2001).

One experiment relates to potassium channels. In words: Membrane Hyperpolarization (MHP) in Guinea-Pig Bladder (GPB) Cells, FLIPR with DiBAC(4)3. Particulars: for EC50: concentration eliciting 50% of the test sample's maximal response; for Maximal Response (% P1075): maximal steady-state hyperpolarization relative to 10 μM P1075 (100%). Format: cell-based. The procedure: Compounds were evaluated for potassium channel opening activity using primary cultured quinea-pig urinary bladder (GPB) cells.
For the preparation of urinary bladder smooth muscle cells, urinary bladders were removed from male quinea-pigs (Hartley, Charles River, Wilmington, Mass.) weighing 300-400 g and placed in ice-cold Ca^2+ -free Krebs solution (Composition, mM: KCl, 2.7; KH2 PO4, 1.5; NaCl, 75; Na2 HPO4, 9.6; Na2 HPO4.7H2 O, 8; MgSO4, 2; glucose, 5; HEPES, 10; pH 7.4). Cells were isolated by enzymatic dissociation as previously described with minor modifications in (Klockner, U. and Isenberg, G., Pflugers Arch. 1985, 405, 329-339), hereby incorporated by reference. The bladder was cut into small sections and incubated in 5 mL of the Kreb's solution containing 1 mg/mL collagenase (Sigma, St. Louis, Mo.) and 0.2 mg/mL pronase (Calbiochem, La Jolla, Calif.) with continuous stirring in a cell incubator for 30 minutes. The mixture was then centrifuged at 1300×g for 5 minutes, and the pellet resuspended in Dulbecco's PBS (GIBCO, Gaithersburg, Md.) and recentrifuged to remove residual enzyme. The cell pellet was resuspended in 5 mL growth media (composition: Dulbecco's modified Eagle's medium supplemented with 10% fetal bovine serum, 100 units/niL penicillin, 100 units/mL streptomycin and […] amphotericin B) and further dissociated by pipetting the suspension through a flame-polished Pasteur pipette and passing it through a polypropylene mesh membrane (Spectrum, Houston, Tex.). The cell density was adjusted to 100,000 cells/mL by resuspension in growth media. Cells were plated in clear-bottomed black 96-well plates (Packard) for membrane potential studies at a density of 20,000 cells/well and maintained in a cell incubator with 90% air: 10% CO2 until confluent. Cells were confirmed to be of smooth muscle type by cytoskeletal staining using a monoclonal mouse anti human-α-smooth muscle actin (Biomeda, Foster City, Calif.).
Functional activity at potassium channels was measured by evaluating changes in membrane potential using the bis-oxonol dye DiBAC(4)3 (Molecular Probes) in a 96-well cell-based kinetic assay system, Fluorescent Imaging Plate Reader (FLIPR) (K. S. Schroeder et al., J. Biomed. Screen., v. 1 pp. 75-81 (1996)), hereby incorporated by reference. DiBAC(4)3 is an anionic potentiometric probe which partitions between cells and extracellular solution in a membrane potential-dependent manner. With increasing membrane potential (for example, K^+ depolarization), the probe further partitions into the cell; this is measured as an increase in fluorescence due to dye interaction with intracellular lipids and proteins. Conversely, decreasing membrane potential (hyperpolarizationby potassium channel openers) evokes a decrease in fluorescence.
Confluent quinea-pig urinary bladder cells cultured in black clear-bottomed96-well plates were rinsed twice with […] assay buffer (composition, mM: HEPES, 20; NaCl, 120; KCl, 2; CaCl2, 2; MgCl2, 1; glucose, 5; pH 7.4 at 25 ° C.) containing 5 μM DiBAC(4)3 and incubated with […] of the buffer in a cell incubator for 30 minutes at 37 ° C. to ensure dye distribution across the membrane. After recording the baseline fluorescence for 5 minutes, the reference or test compounds, prepared at 10 times the concentration in the assay buffer, were added directly to the wells. Changes in fluorescence were monitored for an additional 25 minutes. Hyperpolarization responses were corrected for any background noise and were normalized to the response observed with 10 μM of the reference compound P1075, N"-cyano-N-(tert-pentyl)-N'-(3-pyridinyl)quanidine, which was assigned as 100%. P1075 is a potent opener of smooth muscle KATP channels (Quast et al., Mol. Pharmacol., v. 43 pp. 474-481 (1993)) and was prepared using the procedures described in (Manley, J. Med. Chem. (1992) 35, 2327-2340), hereby incorporated by reference. […]

Experiment [1] has as its target smooth muscle KATP channels (Rattus norvegicus, UniProt Q63563). Conditions: Quast et al., Mol. Pharmacol., v. 43 pp. 474-481 (1993); cited from earlier work.
For a further experiment, the system named is potassium channel. In words: Functional Potassium Channel Opening Activity in Isolated Bladder Strips (electrically stimulated twitch). Conditions: Landrace pig bladder strips; for Index: ED50 of P1075 divided by ED50 of test agonist, averaged over tissues; for Efficacy (% P1075): maximal efficacy relative to P1075, field stimulation 0.05 Hz; for pD2: negative logarithm of ED50. The procedure:
Compounds of the present invention were evaluated for functional potassium channel opening activity using tissue strips obtained from Landrace pig bladders.
Landrace pig bladders were obtained from female Landrace pigs of 9-30 kg. Landrace pigs wer eutanized with an intraperitoneal injection of pentobarbital solution, Somlethal®, J. A. Webster Inc., Sterling Mass. The entire bladder was removed and immediately placed into Krebs Ringer bicarbonate solution (composition, mM: NaCl, 120; NaHCO3, 20; dextrose, 11; KCl, 4.7; CaCl2, 2.5; MgSO4, 1.5; KH2 PO4, 1.2; K2 EDTA, 0.01, equilibrated with 5% CO2 /95% O2 pH 7.4 at 37 ° C.). Propranolol (0.004 mM) was included in all of the assays to block β-adrenoceptors. The trigonal and dome portions were discarded. Strips 3-5 mm wide and 20 mm long were prepared from the remaining tissue cut in a circular fashion. The mucosal layer was removed. One end was fixed to a stationary glass rod and the other to a Grass FT03 transducer at a basal preload of 1.0 gram. Two parallel platinum electrodes were included in the stationary glass rod to provide field stimulation of 0.05 Hz, 0.5 milli-seconds at 20 volts. This low frequency stimulation produced a stable twitch response of 100-500 centigrams. Tissues were allowed to equilibrate for at least 60 minutes and primed with 80 mM KCl. A control concentration response curve (cumulative) was generated for each tissue using the potassium channel opener P1075 as the control agonist. […] After a 60 minute rinsing period, a concentration response curve (cumulative) was generated for the test agonist in the same fashion as that used for the control agonist P1075. The maximal efficacy of each compounds (expressed as % relative to P1075) is reported. The amount of agent necessary to cause 50% of the agent's maximal response (ED50) was calculated using "ALLFIT" (DeLean et al., Am. J. Physiol., 235, E97 (1980)), hereby incorporated by reference, and agonist potencies were expressed as pD2 (the negative logarithm). Agonist potencies were also expressed as an index relative to P1075. The index was calculated by dividing the ED50 for P1075 by the ED50 for the test agonist in a given tissue. Each tissue was used for only one test agonist, and the indices obtained from each tissue were averaged to provide an average index of potency.

SMILES strings stand for the structures.

smooth muscle KATP channels, sequence (Q63563 1-1545 isoform Q63563-2): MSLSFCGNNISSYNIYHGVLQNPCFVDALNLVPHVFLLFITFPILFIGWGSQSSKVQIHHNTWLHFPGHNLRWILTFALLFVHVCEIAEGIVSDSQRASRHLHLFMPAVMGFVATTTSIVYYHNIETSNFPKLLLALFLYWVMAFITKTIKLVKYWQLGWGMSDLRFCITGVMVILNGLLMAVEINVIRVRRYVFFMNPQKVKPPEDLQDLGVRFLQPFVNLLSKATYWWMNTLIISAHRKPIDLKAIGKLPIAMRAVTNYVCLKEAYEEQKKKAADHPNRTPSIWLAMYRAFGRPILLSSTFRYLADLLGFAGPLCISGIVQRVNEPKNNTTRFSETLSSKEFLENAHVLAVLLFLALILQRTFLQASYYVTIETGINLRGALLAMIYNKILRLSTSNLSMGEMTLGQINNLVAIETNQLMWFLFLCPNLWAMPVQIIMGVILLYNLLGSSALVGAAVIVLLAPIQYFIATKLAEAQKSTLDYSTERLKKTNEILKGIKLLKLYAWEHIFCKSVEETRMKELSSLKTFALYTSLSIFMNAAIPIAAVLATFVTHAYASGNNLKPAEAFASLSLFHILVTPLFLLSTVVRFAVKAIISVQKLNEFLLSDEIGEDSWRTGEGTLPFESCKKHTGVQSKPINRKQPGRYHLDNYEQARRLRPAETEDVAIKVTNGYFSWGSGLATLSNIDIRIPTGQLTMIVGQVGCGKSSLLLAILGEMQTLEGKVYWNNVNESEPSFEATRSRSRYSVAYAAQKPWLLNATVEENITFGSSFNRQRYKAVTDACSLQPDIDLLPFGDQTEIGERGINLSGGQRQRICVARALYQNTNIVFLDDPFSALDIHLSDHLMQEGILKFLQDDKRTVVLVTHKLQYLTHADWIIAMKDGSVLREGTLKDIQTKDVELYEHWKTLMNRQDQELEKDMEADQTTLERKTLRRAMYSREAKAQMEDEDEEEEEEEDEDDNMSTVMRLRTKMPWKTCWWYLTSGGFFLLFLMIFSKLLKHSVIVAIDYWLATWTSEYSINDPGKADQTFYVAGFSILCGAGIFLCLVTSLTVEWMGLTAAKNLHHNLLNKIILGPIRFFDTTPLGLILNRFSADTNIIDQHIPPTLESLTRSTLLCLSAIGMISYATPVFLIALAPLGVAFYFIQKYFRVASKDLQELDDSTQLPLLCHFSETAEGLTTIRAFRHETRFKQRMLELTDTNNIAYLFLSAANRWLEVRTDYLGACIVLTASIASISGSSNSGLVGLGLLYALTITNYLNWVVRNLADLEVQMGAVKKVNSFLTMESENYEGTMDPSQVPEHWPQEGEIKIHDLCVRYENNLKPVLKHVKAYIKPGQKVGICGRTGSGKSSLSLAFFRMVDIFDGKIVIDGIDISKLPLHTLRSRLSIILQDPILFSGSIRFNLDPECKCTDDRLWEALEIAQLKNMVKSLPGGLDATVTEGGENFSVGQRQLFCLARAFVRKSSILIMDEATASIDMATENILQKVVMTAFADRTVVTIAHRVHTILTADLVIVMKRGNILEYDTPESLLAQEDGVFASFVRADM
smooth muscle KATP channels, sequence (Q63664 whole entry partner): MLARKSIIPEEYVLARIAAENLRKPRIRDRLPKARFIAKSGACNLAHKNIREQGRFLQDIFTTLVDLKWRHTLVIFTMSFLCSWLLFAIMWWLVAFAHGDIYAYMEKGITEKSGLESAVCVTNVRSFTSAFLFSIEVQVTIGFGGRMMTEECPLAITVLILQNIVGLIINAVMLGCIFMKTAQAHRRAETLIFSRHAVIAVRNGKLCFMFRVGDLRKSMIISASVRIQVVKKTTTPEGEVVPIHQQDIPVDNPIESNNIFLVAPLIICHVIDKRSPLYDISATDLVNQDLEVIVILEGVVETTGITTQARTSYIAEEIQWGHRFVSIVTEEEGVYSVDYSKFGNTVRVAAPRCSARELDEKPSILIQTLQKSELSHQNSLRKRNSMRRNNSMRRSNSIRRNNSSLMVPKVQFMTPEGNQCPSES

What is called EC50 is the midpoint of the concentration-response curve. Lower therefore signals higher potency in that assay. `O=S1(=O)CCCC2=C1C(c1ccc(F)c(Br)c1)n1nccc1N2` (stereo not drawn) [Example 17]: in the experiment with potassium channels, the EC50 was 910 nM and the “Maximal Response (% P1075)” value was 89 % P1075.

Consider `N#Cc1cccc(C2C3=C(CCCC3=O)Nc3ccnn32)c1` (stereo not drawn) [Example 12, 9-(3-cyanophenyl)-5,6,7,9-tetrahydropyrazolo[5,1-b]quinazolin-8(4H)-one], for which, in the experiment with potassium channels, the EC50 stood at 2860 nM and the “Maximal Response (% P1075)” value was found to be 85 % P1075.

Take `CCC(C)(C)NC(=NC#N)Nc1cccnc1` [Example P1075, N"-cyano-N-(tert-pentyl)-N'-(3-pyridinyl)quanidine, reference compound]: the “opener of smooth muscle KATP channels” value in experiment [1] is on record as “potent opener”. The “elimination of the stimulated twitch” value in the experiment with potassium channel (dose dependent over 10^-9 to 10^-5 M) was “completely eliminated the stimulated twitch”.

Regarding `O=C1CCCC2=C1C(c1cccc3ccccc13)n1nccc1N2` (stereo not drawn) [Example 3, 9-(1-naphthyl)-5,6,7,9-tetrahydropyrazolo[5,1-b]quinazolin-8(4H)-one], in the experiment on potassium channels, the concentration giving a half-maximal response (EC50) worked out at 24000 nM and the “Maximal Response (% P1075)” value worked out at 34 % P1075.

Regarding `O=C1CSCC2=C1C(c1ccc(F)c(Br)c1)n1nccc1N2` (stereo not drawn) [Example 2, 9-(3-bromo-4-fluorophenyl)-5,9-dihydro-4H-pyrazolo[1,5-a]thiopyrano[3,4-d]pyrimidin-8(7H)-one], in the experiment with potassium channels, the EC50 is 40 nM and the “Maximal Response (% P1075)” value came to 100 % P1075.

In the case of `O=C1CCCC2=C1C(c1ccc(F)c(Br)c1)n1nccc1N2` (stereo not drawn) [Example 1], in the experiment with potassium channels, the 50% effective concentration (EC50) is 31 nM and the “Maximal Response (% P1075)” value was 87 % P1075. Also, in the experiment on potassium channel, the Index is 0.26, the “Efficacy (% P1075)” value was 96 % P1075 and the pD2 was determined as 6.47.

Take `O=C1CCCC2=C1C(c1ccc(F)c(Br)c1)n1nccc1N2` (single isomer, unassigned; (+)) [Example 16, (+) 9-(3-bromo-4-fluorophenyl)-5,6,7,9-tetrahydropyrazolo [5,1-b]quinazolin-8(4H)-one]: in the experiment on potassium channels, the midpoint of the response, the EC50, lay at 20 nM and the “Maximal Response (% P1075)” value stood at 105 % P1075. For the same molecule, in the experiment on potassium channel, the Index was 0.28, the “Efficacy (% P1075)” value is recorded as 95 % P1075 and the pD2 came to 6.34.

Take `O=C1CCCC2=C1C(c1cccc(OC(F)(F)F)c1)n1nccc1N2` (stereo not drawn) [Example 11, 9-[3-(trifluoromethoxy)phenyl]-5,6,7,9-tetrahydropyrazolo[5,1-b]quinazolin-8(4H)-one]: in the experiment with potassium channels, the EC50 is 1710 nM and the “Maximal Response (% P1075)” value is 90 % P1075.

With `O=C1CCCC2=C1C(c1ccc3ccccc3c1)n1nccc1N2` (stereo not drawn) [Example 4, 9-(2-naphthyl)-5,6,7,9-tetrahydropyrazolo[5,1-b]quinazolin-8(4H)-one], in the experiment on potassium channels, the response was half-maximal at 429 nM (EC50) and the “Maximal Response (% P1075)” value is 96 % P1075.

With `O=C1CCCC2=C1C(c1cccc(Br)c1)n1nccc1N2` (stereo not drawn) [Example 7, 9-(3-bromophenyl)-5,6,7,9-tetrahydropyrazolo[5,1-b]quinazolin-8(4H)-one], in the experiment on potassium channels, the EC50 was found to be 550 nM and the “Maximal Response (% P1075)” value is listed as 98 % P1075.

With `O=C1OCC2=C1C(c1ccc(F)c(Br)c1)n1nccc1N2` (stereo not drawn) [Example 14, 8-(3-bromo-4-fluorophenyl)-5,8-dihydro-4H,7H-furo[3,4-d]pyrazolo[1,5-a]pyrimidin-7-one], in the experiment with potassium channels, the EC50 is 258 nM and the “Maximal Response (% P1075)” value is reported as 89 % P1075.

Turning to `O=C1CCCC2=C1C(c1ccc(Cl)c(C(F)(F)F)c1)n1nccc1N2` (stereo not drawn) [Example 9, 9-[4-chloro-3-(trifluoromethyl)phenyl]-5,6,7,9-tetrahydropyrazolo[5,1-b]quinazolin-8(4H)-one], in the experiment on potassium channels, the EC50 came out at 187 nM and the “Maximal Response (% P1075)” value was determined as 94 % P1075.

Consider `O=C1CCCC2=C1C(c1ccc(F)c(C(F)(F)F)c1)n1nccc1N2` (stereo not drawn) [Example 10, 9-[4-fluoro-3-(trifluoromethyl)phenyl]-5,6,7,9-tetrahydropyrazolo[5,1-b]quinazolin-8(4H)-one], for which, in the experiment with potassium channels, the EC50 stood at 290 nM and the “Maximal Response (% P1075)” value is reported as 100 % P1075.

Take `O=C1CCCC2=C1C(c1ccc(Br)c(Br)c1)n1nccc1N2` (stereo not drawn) [Example 5, 9-(3 4-dibromophenyl)-5,6,7,9-tetrahydropyrazolo[5,1-b]quinazolin-8(4H)-one]: in the experiment on potassium channels, the EC50 was 122 nM and the “Maximal Response (% P1075)” value was 98 % P1075.

Turning to `O=C1CCCC2=C1C(c1ccc(F)c(Br)c1)n1nccc1N2` (single isomer, unassigned; (-)) [Example 15, (-) 9-(3-bromo-4-fluorophenyl)-5,6,7,9-tetrahydropyrazolo[5,1-b]quinazolin-8(4H)-one], in the experiment with potassium channels, the concentration for a half-maximal effect (EC50) is 51 nM and the “Maximal Response (% P1075)” value was 103 % P1075. In addition, in the experiment on potassium channel, the Index came to 0.21, the “Efficacy (% P1075)” value turned out to be 100 % P1075 and the pD2 turned out to be 6.67.

For the molecule `Cc1cccc(C2C3=C(CCCC3=O)Nc3ccnn32)c1` (stereo not drawn) [Example 13, 9-(3-methylphenyl)-5,6,7,9-tetrahydropyrazolo[5,1-b]quinazolin-8(4H)-one], in the experiment with potassium channels, it took 10000 nM to reach a half-maximal effect (EC50) and the “Maximal Response (% P1075)” value is listed as 50 % P1075.

Regarding `O=C1CCCC2=C1C(c1ccc(Cl)c(Cl)c1)n1nccc1N2` (stereo not drawn) [Example 6, 9-(3,4-dichlorophenyl)-5,6,7,9-tetrahydropyrazolo [5,1-b]quinazolin-8(4H)-one], in the experiment with potassium channels, the EC50 is 130 nM and the “Maximal Response (% P1075)” value came out at 95 % P1075.

Regarding `O=C1CCCC2=C1C(c1cccc(Cl)c1)n1nccc1N2` (stereo not drawn) [Example 8, 9-(3-chlorophenyl)-5,6,7,9-tetrahydropyrazolo[5,1-b]quinazolin-8(4H)-one], in the experiment on potassium channels, the EC50 is 1120 nM and the “Maximal Response (% P1075)” value is reported as 92 % P1075.
